Source: patent US20090326008A1, “NF-kappa B Inhibitor” (priority 2006, published 2009)

System: IL-8
Assay: Relative IL-8 mRNA expression in IL-1β-stimulated MKN-45 cells (real-time PCR)
Type: cell-based, human
Settings: IL-1β-stimulated DMSO-treated cells = 100%, ACTB reference
Method: RNA was extracted from the cells used in Example 2 according to the manufacturer's protocol for ABI Prism 6100 Nucleic Acid PrepStation (a nucleic acid isolation system, product of Applied Biosystems). More specifically, after removal of the culture supernatant and washing with 1 mL of PBS, 250 μL of Nucleic Acid Purification Lysis Solution (Part No. 4305895, Applied Biosystems) was added, and then agitated using a shaker for 2 to 3 minutes. The Lysis Solution containing the cell lysate was collected, and the total amount was transferred to the wells of RNA Purification Tray (Part No. 4305673, Applied Biosystems), which had been pre-wet with 40 μL of Nucleic Acid Purification Wash Solution I (Part No. 4305891, Applied Biosystems) beforehand. Aspiration (20% pressure) was performed for 2 minutes to adsorb the sample onto the RNA Purification Tray, followed by sequentially adding and aspirating (20% pressure, 2 min.) 500 μL of Wash Solution I, Nucleic Acid Purification (Part No. 4305891, Applied Biosystems), 400 μL of Wash Solution II, Nucleic Acid Purification (Part No. 4305890, product of Applied Biosystems), 400 μL of the Wash Solution II, and 300 μL of the Wash Solution II in that order. Aspiration (90% pressure) was performed for 5 minutes to remove the water content from the RNA Purification Trays. After addition of 150 μL of Elution Solution, Nucleic Acid Purification (Part No. 4305893, product of Applied Biosystems), aspiration (20% pressure) was performed for 2 minutes, while collecting the outflow. This was used as collected RNA solution.
Absorbance of the collected RNA solution at 260 nm was measured using a microplate spectrophotometer (“SpectraMax Plus”, product of Molecular Devices) with an analysis software (“SOFTmaxPRO ver.3.1.2”, product of Molecular Devices), and the RNA concentration was determined from the absorbance. Likewise, absorbance at 280 nm was measured and the purity of the RNA was determined using the analysis software.
cDNA was synthesized according to the manufacturer's protocol for TaqMan® Reverse Transcription Reagents (Part No. N808-0234, product of Applied Biosystems). More specifically, about 0.5 μg of RNA, 2.5 μL of 10×RT buffer, 5.5 μL of MgCl2 solution, 5 μL of dNTP mixture, 1.25 μL of random hexamer (primers), 0.5 μL of RNase inhibitor, and 0.63 μL of MultiScribe Reverse Transcriptase (product of Applied Biosystems) were added to each collected RNA sample in a tube, and DEPC-treated water was added to make a total volume of 25 μL and stirred. A reaction consisting of 25° C. for 10 minutes, 48° C. for 30 minutes, and 95° C. for 5 minutes was performed using a PCR thermal cycler (“TaKaRa PCR Thermal Cycler Dice”, product of Takara Bio Inc.) to prepare a cDNA solution.
PCR was performed according to the manufacturer's protocol for TaqMan® Gene Expression Assays (product of Applied Biosystems). More specifically, 5 μL of TaqMan® Fast Universal PCR Master Mix (product of Applied Biosystems), 0.5 μL of TaqMan® Gene Expression Assays for the target gene (gene-specific probe and primer sets, product of Applied Biosystems), and 4.5 μL of the above-obtained cDNA solution were added to each sample and stirred. A PCR reaction consisting of heating at 95° C. for 20 seconds, followed by 40 cycles consisting of heating at 95° C. for 3 seconds and annealing and extension at 60° C. for 30 seconds was performed using a real-time PCR device (“Applied Biosystems 7500 Real-Time PCR System”) with SDS v1.4 Software (product of Applied Biosystems). Threshold cycle (Ct) values were calculated using the software.
The Assay IDs of the TaqMan® Gene Expression Assays for the target genes used are as follows:
The expression level of each gene was determined according to the following formula using the level of ACTB as a reference standard.
(Relative mRNA expression level)=2̂−{(Ct value of the target gene)−(Ct value of ACTB)} […]

Compound: COc1ccc(CC2SC(=S)NC2=O)c2c1N(CCC(C)C)C(=O)CC2 (stereo not shown) [Test Compound 965]
- IL-8 relative mRNA expression level, Mean: 61.2%
